Data taken from patent US10633386B2, “BET protein degraders” (THE REGENTS OF THE UNIVERSITY OF MICHIGAN, priority 2016, dated 2020).
Like-named read-outs stand apart in the source and are kept apart here.

How the values were obtained:
Type in all cases: cell-based
SW1463 = assay: Cell growth inhibition (CellTiter-Glo), colon cancer line SW1463
Description: (§1) Cell growth inhibitory activity of representative BET bromodomain degraders in representative non-small cell lung cancer cell lines was determined using the CellTiter-Glo® Luminescent Cell Viability Assay. Cells were seeded in 384-well white opaque cell culture plates at a density of 2,000 cells/well with serially diluted compounds and incubated at 37° C. in an atmosphere of 95% air and 5% CO2 for 4 days. Cell viability was determined using the CellTiter-Glo® Luminescent Cell Viability Assay Kit (Promega, Madison, Wis.) according to the manufacture's instruction. Briefly, a volume of CellTiter-Glo® Reagent equal to the volume of cell culture medium was added to each well, and then the plates were incubated at room temperature for 10-20 minutes. The luminescent signal was measured using a Tecan Infinite M1000 multimode microplate reader (Tecan, Morrisville, N.C.). The half maximal inhibitory concentration (IC50) was calculated using the GraphPad Prism 5 software (GraphPad Software, La Jolla, Calif.). Cpd. A is a BET bromodomain inhibitor, see U.S. Appl. No. 62/121,637, having the following structure:
(§2) Cell growth inhibitory activity of representative BET bromodomain degraders in representative colon cancer cell lines, see Table 7, was determined as described in Example 17.

H2228 = assay: Cell growth inhibition (CellTiter-Glo), NSCLC line H2228; conditions: H2228 non-small cell lung cancer cell line, 4 days
Description: as §1, with “Appl.” for “Appl. No. 62/121,637, having the following structure:”

HT-29 = assay: Cell growth inhibition (CellTiter-Glo), colon cancer line HT-29; conditions: HT-29 colon cancer cell line
Description: as §1, §2

SUM-52 = assay: Cell growth inhibition (CellTiter-Glo), breast cancer line SUM-52; conditions: SUM-52 breast cancer cell line, 4 days
Description: (§3) Cell growth inhibitory activity of representative BET bromodomain degraders in representative breast cancer cell lines was determined using the CellTiter-Glo® Luminescent Cell Viability Assay. SUM-52 and SUM-159 cell lines were established at the University of Michigan Comprehensive Cancer Center. All the other breast cancer cell lines were obtained from the ATCC (Manassas, Va.). Cells were seeded in 384-well cell culture plates at a density of 1,000-2,500 cells/well with serially diluted compounds and incubated at 37° C. in an atmosphere of 95% air and 5% CO2 for 4 days. Cell viability was determined using the CellTiter-Glo® Luminescent Cell Viability Assay Kit (Promega, Madison, Wis.) according to the manufacture's instruction. Briefly, a volume of CellTiter-Glo® Reagent equal to the volume of cell culture medium was added to each well, and then the plates were incubated at room temperature for 20-60 minutes. The luminescent signal was measured using a Tecan Infinite M1000 multimode microplate reader (Tecan, Morrisville, N.C.). The half maximal inhibitory concentration (IC50) was calculated using the GraphPad Prism 5 software (GraphPad Software, La Jolla, Calif.). “Thd” is thalidomide.

H322 = assay: Cell growth inhibition (CellTiter-Glo), NSCLC line H322; conditions: H322 non-small cell lung cancer cell line, 4 days
Description: as §1, with “Appl.” for “Appl. No. 62/121,637, having the following structure:”

HCC1428 = assay: Cell growth inhibition (CellTiter-Glo), breast cancer line HCC1428; conditions: 4 days
Description: as §3

SW403 = assay: Cell growth inhibition (CellTiter-Glo), colon cancer line SW403
Description: as §1, §2

MDA-MB-157 = assay: Cell growth inhibition (CellTiter-Glo), breast cancer line MDA-MB-157; conditions: MDA-MB-157 breast cancer cell line, 4 days
Description: as §3

A549 = assay: Cell growth inhibition (CellTiter-Glo), NSCLC line A549; conditions: A549 non-small cell lung cancer cell line, 4 days
Description: as §1, with “Appl.” for “Appl. No. 62/121,637, having the following structure:”

H1792 = assay: Cell growth inhibition (CellTiter-Glo), NSCLC line H1792; conditions: H1792 non-small cell lung cancer cell line, 4 days
Description: as §1, with “Appl.” for “Appl. No. 62/121,637, having the following structure:”

Lovo = assay: Cell growth inhibition (CellTiter-Glo), colon cancer line Lovo
Description: as §1, §2

SW1412 = assay: Cell growth inhibition (CellTiter-Glo), colon cancer line SW1412
Description: as §1, §2

SW480 = assay: Cell growth inhibition (CellTiter-Glo), colon cancer line SW480
Description: as §1, §2

HCT116 = assay: Cell growth inhibition (CellTiter-Glo), colon cancer line HCT116
Description: as §1, §2

SKLU-1 = assay: Cell growth inhibition (CellTiter-Glo), NSCLC line SKLU-1; conditions: SKLU-1 non-small cell lung cancer cell line, 4 days
Description: as §1, with “Appl.” for “Appl. No. 62/121,637, having the following structure:”

HCC38 = assay: Cell growth inhibition (CellTiter-Glo), breast cancer line HCC38; conditions: 4 days
Description: as §3

H1648 = assay: Cell growth inhibition (CellTiter-Glo), NSCLC line H1648; conditions: H1648 non-small cell lung cancer cell line, 4 days
Description: as §1, with “Appl.” for “Appl. No. 62/121,637, having the following structure:”

H1650 = assay: Cell growth inhibition (CellTiter-Glo), NSCLC line H1650; conditions: H1650 non-small cell lung cancer cell line, 4 days
Description: as §1, with “Appl.” for “Appl. No. 62/121,637, having the following structure:”

SW948 = assay: Cell growth inhibition (CellTiter-Glo), colon cancer line SW948
Description: as §1, §2

HCC1187 = assay: Cell growth inhibition (CellTiter-Glo), breast cancer line HCC1187; conditions: 4 days
Description: as §3

H508 = assay: Cell growth inhibition (CellTiter-Glo), colon cancer line H508
Description: as §1, §2

HCC1395 = assay: Cell growth inhibition (CellTiter-Glo), breast cancer line HCC1395; conditions: 4 days
Description: as §3

RKO = assay: Cell growth inhibition (CellTiter-Glo), colon cancer line RKO
Description: as §1, §2

BT-20 = assay: Cell growth inhibition (CellTiter-Glo), breast cancer line BT-20; conditions: BT-20 breast cancer cell line, 4 days
Description: as §3

CCn1nc(C2CC2)cc1Nc1nc(COC)nc2[nH]c3cc(-c4c(C)noc4C)c(OC)cc3c12 [Cpd. A, reference compound]
IC50 (SW1463; Homo sapiens): > 2.5 µM
IC50 (H2228; Homo sapiens, NCI-H2228, 96 h): 2.4 µM
IC50 (HT-29; Homo sapiens): 0.069 ± 0.001 µM
IC50 (SUM-52; SUM52, 96 h): 0.39 µM
IC50 (H322; NCI-H322, 96 h): 0.34 µM
IC50 (HCC1428; Homo sapiens, 96 h): 0.05 µM
IC50 (SW403; Homo sapiens, SW-403): 0.102 ± 0.023 µM
IC50 (MDA-MB-157; Homo sapiens, 96 h): 0.86 µM
IC50 (A549; Homo sapiens, 96 h): 0.02 µM
IC50 (H1792; Homo sapiens, NCI-H1792, 96 h): 0.13 µM
IC50 (Lovo; Homo sapiens): 0.044 ± 0.017 µM
IC50 (SW1412): 0.04 ± 0.02 µM
IC50 (SW480; Homo sapiens): 0.567 ± 0.01 µM
IC50 (HCT116; Homo sapiens, HCT-116): 1.16 ± 0.179 µM
IC50 (SKLU-1; Homo sapiens, SK-LU-1, 96 h): 0.04 µM
IC50 (HCC38; Homo sapiens, 96 h): 0.06 µM
IC50 (H1648; Homo sapiens, NCI-H1648, 96 h): 0.14 µM
IC50 (H1650; Homo sapiens, NCI-H1650, 96 h): 0.43 µM
IC50 (SW948; Homo sapiens): > 2.5 µM
IC50 (HCC1187; Homo sapiens, 96 h): 0.96 µM
IC50 (H508; Homo sapiens, NCI-H508): 0.167 ± 0.09 µM
IC50 (HCC1395; Homo sapiens, 96 h): 1.05 µM
IC50 (RKO; Homo sapiens): 0.272 ± 0.235 µM
IC50 (BT-20; Homo sapiens, 96 h): 2.41 µM

CCn1nc(C2CC2)cc1Nc1nc(C(=O)NCCCOCCOCCOCCCNc2cccc3c2C(=O)N(C2CCC(=O)NC2=O)C3=O)nc2[nH]c3cc(-c4c(C)noc4C)c(OC)cc3c12 (centres unmarked) [Cpd. No. 4]
IC50 (SW1463; Homo sapiens): 0.031 ± 0.01 µM
IC50 (H2228; Homo sapiens, NCI-H2228, 96 h): 0.174 µM
IC50 (HT-29; Homo sapiens): 0.032 ± 0.02 µM
IC50 (SUM-52; SUM52, 96 h): 0.008 µM
IC50 (H322; NCI-H322, 96 h): 0.044 µM
IC50 (HCC1428; Homo sapiens, 96 h): 0.013 µM
IC50 (SW403; Homo sapiens, SW-403): 0.042 ± 0.01 µM
IC50 (MDA-MB-157; Homo sapiens, 96 h): 0.002 µM
IC50 (A549; Homo sapiens, 96 h): 0.119 µM
IC50 (H1792; Homo sapiens, NCI-H1792, 96 h): 0.048 µM
IC50 (Lovo; Homo sapiens): 0.013 ± 0.014 µM
IC50 (SW1412): 0.009 ± 0.004 µM
IC50 (SW480; Homo sapiens): 0.037 ± 0.01 µM
IC50 (HCT116; Homo sapiens, HCT-116): 0.13 ± 0.03 µM
IC50 (SKLU-1; Homo sapiens, SK-LU-1, 96 h): 0.003 µM
IC50 (HCC38; Homo sapiens, 96 h): 0.004 µM
IC50 (H1648; Homo sapiens, NCI-H1648, 96 h): 0.005 µM
IC50 (H1650; Homo sapiens, NCI-H1650, 96 h): 0.004 µM
IC50 (SW948; Homo sapiens): 0.197 ± 0.16 µM
IC50 (HCC1187; Homo sapiens, 96 h): 0.003 µM
IC50 (H508; Homo sapiens, NCI-H508): 0.054 ± 0.03 µM
IC50 (HCC1395; Homo sapiens, 96 h): 0.277 µM
IC50 (RKO; Homo sapiens): 0.046 ± 0.001 µM
IC50 (BT-20; Homo sapiens, 96 h): 0.025 µM

CCn1nc(C2CC2)cc1Nc1nc(C(=O)NCCCCNc2cccc3c2C(=O)N(C2CCC(=O)NC2=O)C3=O)nc2[nH]c3cc(-c4c(C)noc4C)c(OC)cc3c12 (centres unmarked) [Cpd. No. 9]
IC50 (SW1463; Homo sapiens): 0.191 ± 0.03 µM
IC50 (H2228; Homo sapiens, NCI-H2228, 96 h): 0.61 µM
IC50 (HT-29; Homo sapiens): 0.048 ± 0.002 µM
IC50 (H322; NCI-H322, 96 h): 0.093 µM
IC50 (SW403; Homo sapiens, SW-403): 0.219 ± 0.19 µM
IC50 (A549; Homo sapiens, 96 h): 0.157 µM
IC50 (H1792; Homo sapiens, NCI-H1792, 96 h): 0.151 µM
IC50 (Lovo; Homo sapiens): 0.046 ± 0.049 µM
IC50 (SW1412): 0.034 ± 0.02 µM
IC50 (SW480; Homo sapiens): 0.247 ± 0.06 µM
IC50 (HCT116; Homo sapiens, HCT-116): 0.585 ± 0.07 µM
IC50 (SKLU-1; Homo sapiens, SK-LU-1, 96 h): 0.011 µM
IC50 (H1648; Homo sapiens, NCI-H1648, 96 h): 0.022 µM
IC50 (H1650; Homo sapiens, NCI-H1650, 96 h): 0.008 µM
IC50 (SW948; Homo sapiens): 1 ± 1.07 µM
IC50 (H508; Homo sapiens, NCI-H508): 0.41 ± 0.15 µM
IC50 (RKO; Homo sapiens): 0.241 ± 0.027 µM

Cc1sc2c(c1C)C(c1ccc(Cl)cc1)=N[C@@H](CC(=O)NCCCCNC(=O)COc1cccc3c1C(=O)N(C1CCC(=O)NC1=O)C3=O)c1nnc(C)n1-2 (some centres unmarked) [dBET1, reference compound]
IC50 (SW1463): 2.73 ± 0.3 µM
IC50 (H2228): > 5 µM
IC50 (HT-29): > 5 µM
IC50 (SUM-52): > 5 µM
IC50 (H322): > 5 µM
IC50 (HCC1428): > 5 µM
IC50 (SW403): > 5 µM
IC50 (MDA-MB-157): 1.17 µM
IC50 (A549): > 5 µM
IC50 (H1792): > 5 µM
IC50 (Lovo): > 5 µM
IC50 (SW1412): > 5 µM
IC50 (SW480): > 5 µM
IC50 (HCT116): > 5 µM
IC50 (SKLU-1): > 5 µM
IC50 (HCC38): 3.7 µM
IC50 (H1648): > 5 µM
IC50 (H1650): 2.3 µM
IC50 (SW948): > 5 µM
IC50 (HCC1187): > 5 µM
IC50 (H508): > 5 µM
IC50 (HCC1395): > 5 µM
IC50 (RKO): > 5 µM
IC50 (BT-20): > 5 µM
